Like-named read-outs stand apart in the source and are kept apart here.
Experiments:
[1] = test system: MCT1 expressing WiDr cells; test: Seahorse XFe96 glycolysis stress test (ECAR), WiDr; assay type: cell-based; conditions: 30 μM
Procedure: (§1) In the GST, three parameters namely glycolysis, glycolytic capacity and glycolytic reserve were measured.
(§2) Extracellular acidification rates (ECAR) and oxygen consumption rates (OCR) were recorded in real-time for glycolysis stress test (GST) and mitochondrial stress test (MST), respectively, using Agilent Seahorse XFe96® analyzer.

[2] = test system: MCT4 expressing MDA-MB-231 cells; test: Seahorse XFe96 glycolysis stress test (ECAR), MDA-MB-231; assay type: cell-based; conditions: 30 μM
Procedure: as §1, §2

[3] = test system: MCT1 expressing WiDr cells; test: Seahorse XFe96 mitochondrial stress test (OCR), WiDr; assay type: cell-based; conditions: 30 μM
Procedure: as §2

[4] = test system: MCT4 expressing MDA-MB-231 cells; test: Seahorse XFe96 mitochondrial stress test (OCR), MDA-MB-231; assay type: cell-based; conditions: 30 μM
Procedure: as §2

MCT4 = target: T1, MCT4 (Homo sapiens, UniProt O15427); test: L-[14C]-lactate uptake study in MCT4 expressing MDA-MB-231 cells; assay type: cell-based
T1 construct: These cells predominantly express MCT4 as confirmed by Western blot and quantitative PCR analysis; host or cells: MDA-MB-231
T1 sequence (O15427 2-465 limits assumed): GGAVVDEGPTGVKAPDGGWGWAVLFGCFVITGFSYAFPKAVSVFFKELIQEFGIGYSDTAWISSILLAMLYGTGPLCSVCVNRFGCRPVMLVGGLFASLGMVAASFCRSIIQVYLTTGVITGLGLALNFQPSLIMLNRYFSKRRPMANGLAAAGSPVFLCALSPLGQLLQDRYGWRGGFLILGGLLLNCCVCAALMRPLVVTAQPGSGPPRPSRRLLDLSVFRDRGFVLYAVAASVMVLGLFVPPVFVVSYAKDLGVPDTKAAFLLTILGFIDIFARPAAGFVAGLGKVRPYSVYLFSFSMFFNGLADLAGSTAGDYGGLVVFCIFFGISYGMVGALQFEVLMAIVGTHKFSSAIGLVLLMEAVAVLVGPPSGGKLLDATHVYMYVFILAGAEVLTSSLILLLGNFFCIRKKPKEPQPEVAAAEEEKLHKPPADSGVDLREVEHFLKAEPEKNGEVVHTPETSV
T1 sequence (P35613 140-385 partner limits assumed): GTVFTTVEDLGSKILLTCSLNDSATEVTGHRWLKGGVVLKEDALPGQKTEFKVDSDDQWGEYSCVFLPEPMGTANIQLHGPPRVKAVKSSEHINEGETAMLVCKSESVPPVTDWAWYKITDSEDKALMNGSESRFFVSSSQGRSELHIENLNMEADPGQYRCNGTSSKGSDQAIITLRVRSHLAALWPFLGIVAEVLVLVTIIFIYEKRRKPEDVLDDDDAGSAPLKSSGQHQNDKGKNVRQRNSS
Procedure: In this study, an L-[^14C]-lactate based transport assay was developed by us to quantify MCT4 transport and its inhibition by test compounds. […] For the MCT4 transport assay, the pH of HEPES buffer with L-[^14C]-lactate was adjusted to 7.0 such that lactate influx into the cells was aided by the pH gradient. […] Test compounds were diluted to working concentration in HEPES buffer (140 mM NaCl, 5 mM KCl, 2 mM CaCl2, 2 mM MgCl2, 10 mM HEPES, pH 7.0) containing 3 μM L-[^14C]-lactate (Perkin Elmer) and 2 μM L-lactate. […] HEPES buffer was replaced with 250 μL test solution. After 1 hour, media was replaced with 500 μL ice-cold stop buffer (0.1 mM CHC solution in HBS, pH 7.4) and the plates were placed on ice. Cells were washed twice with ice-cold stop buffer and solubilized using 250 μL of 0.1 M NaOH in 5% Triton-X (Millipore Sigma). A 150 μL aliquot from each well was added to 4 mL EcoLite(+)™ scintillation fluid (MP Biomedicals) and radioactivity was determined by scintillation spectrometry. Inhibition by each test solution was calculated as a percentage of the maximum control uptake. CHC and dimethylsulfoxide (DMSO) were used as controls. […]

MDA-MB-231 cells = test: SRB cell proliferation inhibition assay, MDA-MB-231; assay type: cell-based; conditions: Homo sapiens, 72 hours, average ± sem
Procedure: (§3) MDA-MB-231 cells (ATCC, 2015) were grown in DMEM supplemented with 10% FBS and penicillin-streptomycin (50 U/ml, 50 μg/ml, Invitrogen). WiDr cells (ATCC, 2017) were cultured in MEM medium supplemented with 10% FBS (Atlanta Biologicals) and penicillin-streptomycin (50 U/ml, 50 μg/ml). For in vitro experiments, after seeding, cells were incubated at 37°C in 5% CO2 for 18–24 hours before the addition of test compounds.
(§4) Cells (5 × 10^4 cells/mL) were cultured in 48-well plates. Test compounds were dissolved in DMSO (final concentration of DMSO is <0.1%) and were added to culture wells at various concentrations in replicate and incubated for 72 hours. Growth medium was removed and the wells were washed with PBS and dried. SRB (0.5% in 1% acetic acid) was added to the wells and incubated for 30–45 minutes. The wells were washed 3 times with 1% acetic acid and dried. The cellular protein was dissolved in trizma base (10 mM, pH 10.2) and absorbance was recorded at 540 nm. Percent survival was calculated using the formula %Survival=Abstest compound/Abscontrol×100 .

WiDr cells = test: SRB cell proliferation inhibition assay, WiDr; assay type: cell-based; conditions: Homo sapiens, 72 hours, average ± sem
Procedure: as §3, §4

MCT1 = conditions: RBE4 cells, cited from earlier work
[5] = test system: MDA-MB-231 tumor xenograft; test: Tumor growth inhibition, MDA-MB-231 xenograft model; assay type: in vivo; conditions: SCID mice
Procedure: Figure 6 In vivo xenograft studies in WiDr and MDA-MB-231 tumor models (A) WiDr tumor xenograft study of compound 3 and compound 9. Mice (n = 8) were treated with 8 mg/kg of compound 3, intraperitoneally, two times a day. (B) Tumor growth inhibition study with compound 9 in MDA-MB-231 tumor xenograft model (n = 6). Mice were treated with compound 9 (70 mg/kg, ip, bid until day-4; qd from day-5), a combination of 9 and doxorubicin (0.5 mg/kg, ip, five days a week), and doxorubicin. (C) Tumor growth inhibition based on isolated tumor mass. ^*P < 0.05, ^**P < 0.01, ^***P < 0.001, ^****P < 0.0001. Schematic representation of (D) untreated tumor cells and (E) inhibition of MCT1 and MCT4 and decreased glycolysis and mitochondrial OxPhos in compound 9 treated tumor cells. Upward hollowed arrow indicates “increase” in function/amount and downward hollowed arrow indicates “decrease” in function/amount.
Group-1 was administered with compound 9, group-2 was given a combination of compound 9 and clinical breast cancer drug doxorubicin (AKSci catalog # E518), and group-3 was treated with doxorubicin alone. Group-4 was assigned as a control group and treated with vehicle (10% DMSO in saline). The treatment was continued up to 18 days and on day 20, the mice were euthanized and tumor masses isolated and weighed. […] Due to these reasons, higher dosages of compound 9 were required to produce significant anticancer efficacy in vivo. In all these studies, <20% of body weight loss was observed.
Tumor cells suspended in 1:1 matrigel-PBS were injected on right flank of female SCID mice (n = 6 mice/group, 10^7 MDA-MB-231 cells) or right flank of female athymic nude mice (n = 8 mice/group, 5 × 10^6 WiDr cells). Tumors were measured using calipers every 2–3 days and tumor volumes were calculated using the formula V = ab^2/2 where ‘a’ is the long diameter of the tumor and ‘b’ is the short diameter of the tumor. Tumor growth inhibition was determined using the formula % inhibition = [(C – T)/C] × 100 where C is average tumor weight of the control group and T is the average tumor weight of the test group.

[6] = Supplementary Table 1, average ± SEM, read-out: MCT4 IC50
[7] = Supplementary Table 1, average ± SEM

With Cc1[nH]nc(C(F)(F)F)c1Cc1sc2c(c1C(=O)N1C[C@](C)(O)CO1)c(=O)n(C)c(=O)n2C(C)C [AZD3965, reference compound] the “glycolytic capacity (GST, ECAR)” value [1] was “decreased”, the “glycolytic reserve (GST, ECAR)” value [1] was “decreased” and the “glycolysis (GST, ECAR)” value [2] was “did not show any glycolysis inhibition”. The “glycolytic capacity (GST, ECAR)” value [2] was “decreased glycolytic capacity only in WiDr”, the “glycolytic reserve (GST, ECAR)” value [2] was “decreased glycolytic reserve only in MCT1 expressing WiDr” and the “ATP production (MST, OCR)” value [3] was “did not affect”. For the same compound, the “maximal respiration (MST, OCR)” value [3] was “did not affect”, the “proton leak (MST, OCR)” value [3] was “did not affect” and the “spare respiratory capacity (MST, OCR)” value [3] was “did not affect”. The “ATP production (MST, OCR)” value [4] was “did not affect”, the “maximal respiration (MST, OCR)” value [4] was “did not affect” and the “proton leak (MST, OCR)” value [4] was “did not affect”. The “spare respiratory capacity (MST, OCR)” value [4] was “did not affect”.
For C=CCN(CC=C)c1ccc(/C=C(\C#N)C(=O)O)c(OC)c1 [Allyl (2)], the IC50 (MCT4; Figure 1A and text, lactate uptake, read-out: MCT4 IC50) was 28 nM, the IC50 (MCT4; [6]) was 24 ± 6 nM and the IC50 (MDA-MB-231 cells) was greater than 25000 nM. The IC50 (WiDr cells) was greater than 25000 nM and the IC50 (MCT1; [7]) was 29 ± 2 nM.
COc1cc(N(Cc2ccccc2)Cc2ccccc2)ccc1/C=C(\C#N)C(=O)O [Benzyl (8)] showed an IC50 (MCT4; [6]) of 32 ± 3 nM, an IC50 (MDA-MB-231 cells) greater than 25000 nM and an IC50 (WiDr cells) greater than 25000 nM. The IC50 (MCT1; Figure 1A and text, lactate uptake) was 37 nM and the IC50 (MCT1; [7]) was 25 ± 3 nM.
With CCCCN(CCCC)c1ccc(/C=C(\C#N)C(=O)O)c(OC)c1 [Butyl (3)] the IC50 (MCT4; [6]) was 14 ± 2 nM, the IC50 (MDA-MB-231 cells) was greater than 25000 nM and the IC50 (WiDr cells) was greater than 25000 nM. For the same compound, the “glycolytic capacity (GST, ECAR)” value [1] was “significant decrease”, the “glycolytic reserve (GST, ECAR)” value [1] was “significant decrease” and the “ATP production (MST, OCR)” value [3] was “decreased”. The “maximal respiration (MST, OCR)” value [3] was “decreased”, the “spare respiratory capacity (MST, OCR)” value [3] was “decreased” and the “ATP production (MST, OCR)” value [4] was “decreased”. The “maximal respiration (MST, OCR)” value [4] was “decreased” and the “spare respiratory capacity (MST, OCR)” value [4] was “decreased”.
In the case of N#CC(=Cc1ccc(O)cc1)C(=O)O [CHC, α-cyano-4-hydroxy cinnamic acid, reference compound], the IC50 (MCT4; MCT4 IC50, CHC, lactate uptake) is reported as no less than 150000 nM, the “glycolysis (GST, ECAR)” value [1] is reported as “did not affect” and the “glycolytic capacity (GST, ECAR)” value [1] is reported as “did not affect”. The “glycolytic reserve (GST, ECAR)” value [1] was “decreased”, the “glycolysis (GST, ECAR)” value [2] was “did not affect” and the “glycolytic capacity (GST, ECAR)” value [2] was “did not affect”. The “glycolytic reserve (GST, ECAR)” value [2] was “decreased glycolytic reserve only in MCT1 expressing WiDr”, the “ATP production (MST, OCR)” value [3] was “did not affect” and the “maximal respiration (MST, OCR)” value [3] was “did not affect”. The “proton leak (MST, OCR)” value [3] was “did not affect”, the “spare respiratory capacity (MST, OCR)” value [3] was “did not affect” and the “ATP production (MST, OCR)” value [4] was “did not affect”. For the same compound, the “maximal respiration (MST, OCR)” value [4] was “did not affect”, the “proton leak (MST, OCR)” value [4] was “did not affect” and the “spare respiratory capacity (MST, OCR)” value [4] was “did not affect”. The IC50 (MCT1; CHC, lactate uptake) was no less than 150000 nM.
With COc1cc(N(CC(C)C)CC(C)C)ccc1/C=C(\C#N)C(=O)O [Isobutyl (4)] the IC50 (MCT4; [6]) was 17 ± 2 nM, the IC50 (MDA-MB-231 cells) was greater than 25000 nM and the IC50 (WiDr cells) was greater than 25000 nM. The IC50 (MCT1; [7]) was 11 ± 4 nM.
Compound CCCCCN(CCCCC)c1ccc(/C=C(\C#N)C(=O)O)c(OC)c1 [Pentyl (5)] has an IC50 (MCT4; [6]) of 85 ± 8 nM, an IC50 (MDA-MB-231 cells) greater than 25000 nM and an IC50 (WiDr cells) greater than 25000 nM. For the same compound, the IC50 (MCT1; [7]) was 34 ± 7 nM.
Work on COc1cc(N2CCCCC2)ccc1/C=C(\C#N)C(=O)O [Piperidinyl (7)] yielded an IC50 (MCT4; [6]) of 58 ± 13 nM, an IC50 (MDA-MB-231 cells) greater than 25000 nM and an IC50 (WiDr cells) greater than 25000 nM. For the same compound, the IC50 (MCT1; [7]) was 25 ± 5 nM.
CCCN(CCC)c1ccc(/C=C(\C#N)C(=O)O)c(OC)c1 [Propyl (1)] showed an IC50 (MCT4; [6]) of 11 ± 1 nM, an IC50 (MDA-MB-231 cells) greater than 25000 nM and an IC50 (WiDr cells) greater than 25000 nM. For the same compound, the IC50 (MCT1; [7]) was 12 ± 1 nM.
COc1cc(N2CCCC2)ccc1/C=C(\C#N)C(=O)O [Pyrrolidinyl (6)] showed an IC50 (MDA-MB-231 cells) greater than 25000 nM and an IC50 (WiDr cells) greater than 25000 nM.
In the case of COc1cccc2c1C(=O)c1c(O)c3c(c(O)c1C2=O)C[C@@](O)(C(=O)CO)C[C@@H]3O[C@H]1C[C@H](N)[C@H](O)[C@H](C)O1 [doxorubicin, reference compound], the “tumor growth inhibition based on tumor volume” value ([5]; 9 70 mg/kg ip bid until day-4, qd from day-5, doxorubicin 0.5 mg/kg ip five days a week, treatment up to 18 days) is reported as 48% and the “tumor growth inhibition based on isolated tumor weights” value ([5]; same regimens, tumors isolated on day 20) is reported as 52%.
